Test results from patent US20170074857A1, “MEDICATION ADHERENCE MONITORING DEVICE” (UNIVERSITY OF FLORIDA RESEARCH FOUNDATION, INC., priority 2014, published 2017).

Assay: Example 4b: breath acetone and 2-butanone by Type 1 mGC after soft gel with 2-butanol and isopropyl alcohol
Format: in vivo, human
Details: 2-butanol (40 mg) and isopropyl alcohol (30 mg)
Protocol: Shown in Panel A of FIG. 76 is the 1st derivative mGC response (proportional to EDIM breath concentration) in a Type 1 SMART Device for acetone and 2-butanone as a function of breath sampling times post ingestion of the capsule.
Panel B depicts the change from baseline of the 1st derivative mGC response. Time 0 is baseline (immediately before capsule is ingested containing the two AEMs). […] Note how the 2-butanone levels in breath begin to fall after 20 min, whereas those of acetone slowly continue to rise over the study period.

## CCC(C)=O [Formulation 2-butanone, 2-butanone]
  half life in breath: about 45 minutes
Fasting subject
  Tmax of breath marker: 20 min
